Measured values reported in US20110053971A1, “NALMEFENE DI-ESTER PRODRUGS” (JANSSEN PHARMACEUTICA NV, priority 2008, published 2011).

Test: In vivo PK studies in dog (oral administration): plasma levels of nalmefene
Conditions: oral administration of nalmefene itself, Example C.2
Description: Doses at 10 mg/kg or 20 mg/kg body weight of a compound of formula (I) or of nalmefene itself in a solution of 20% HP-β-CD (hydroxypropyl-β-cyclodextrines) were used and orally administered to dogs.
Blood samples were taken over a period of 192 hours after oral administration. Blood samples were processed to obtain plasma. Plasma samples were analysed individually for nalmefene by means of a qualified LC-MS/MS-method.

## C=C1CC[C@@]2(O)[C@H]3Cc4ccc(O)c5c4[C@@]2(CCN3CC2CC2)[C@H]1O5 [nalmefene, 17-cyclopropylmethyl-4,5α-epoxy-6-methylenemorphinan-3,14-diol]
  time for which plasma levels of nalmefene can be measured after oral administration (in words): a few hours
